pIC50: −log10 of the molar value. Read-outs that look alike come from different tables or passages of the source.
What was measured:
[1] = tested on: Neisseria gonorrhoeae; assay: MIC50 by CLSI agar dilution on a panel of N. gonorrhoeae clinical isolates; format: cell-based; settings: Neisseria gonorrhoeae
Description: MIC50: MICs were determined in accordance with the appropriate Clinical and Laboratory Standards Institute (CLSI) methodology by the agar dilution susceptbility testing method in GC agar base.

[2] = molecular target: Neisseria gonorrhoeae FabI (Neisseria gonorrhoeae, UniProt A0ACH0F547); assay: Neisseria gonorrhoeae FabI inhibition assay (NADH consumption)
Neisseria gonorrhoeae FabI, sequence (A0ACH0F547 1-261): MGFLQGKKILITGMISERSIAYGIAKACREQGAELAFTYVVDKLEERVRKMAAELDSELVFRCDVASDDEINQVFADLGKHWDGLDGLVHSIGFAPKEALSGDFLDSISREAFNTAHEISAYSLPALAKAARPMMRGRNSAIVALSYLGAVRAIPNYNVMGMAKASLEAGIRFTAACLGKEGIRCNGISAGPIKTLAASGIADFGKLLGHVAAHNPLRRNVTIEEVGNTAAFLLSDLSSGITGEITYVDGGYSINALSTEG

[3] = agar dilution, GC agar base, minimum of 15 clinical isolates, read-out: MIC50

| SMILES | MIC50 [1, 3] | pIC50 [2] | MIC50 [1] |
| --- | --- | --- | --- |
| Cc1c(CN(C)C(=O)/C=C/c2cnc3c(c2)NC(C)(C)C(=O)N3)oc2ccccc12 [Compound 19, (E)-3-(2,2-dimethyl-3-oxo-1,2,3,4-tetrahydropyrido[2,3-b]pyrazin-7-yl)-N-methyl-N-((3-methylbenzofuran-2-yl)methyl)acrylamide] | < 1 µg/mL | > 8.00 |  |
| Cc1c(CN(C)C(=O)/C=C/c2cnc3c(c2)N[C@](C)(CO)C(=O)N3)oc2ccccc12 (single isomer, unassigned) [Compound 209] | < 1 µg/mL | > 8.00 |  |
| Cc1c(CN(C)C(=O)/C=C/c2cnc3c(c2)C[C@@](C)(O)C(=O)N3)oc2ccccc12 (single isomer, unassigned) [Compound 247] |  | > 8.00 | < 1 µg/mL |
| Cc1c(CN(C)C(=O)/C=C/c2cnc3c(c2)N[C@H](C)[C@H](O)C(=O)N3)oc2ccccc12 (single isomer, unassigned) [Compound 150] | < 1 µg/mL | > 8.00 |  |
| CCC1(O)Cc2cc(/C=C/C(=O)N(C)Cc3oc4ccccc4c3C)cnc2NC1=O (centres unmarked) [Compound 252, (E)-3-(6-ethyl-6-hydroxy-7-oxo-5,6,7,8-tetrahydro-1,8-naphthyridin-3-yl)-N-methyl-N-((3-methylbenzofuran-2-yl)methyl)acrylamide] | < 1 µg/mL | > 8.00 |  |
| Cc1c(CN(C)C(=O)/C=C/c2cnc3c(c2)NCC(C)(CO)C(=O)N3)oc2ccccc12 (centres unmarked) [Compound 31, (E)-3-(3-(hydroxymethyl)-3-methyl-4-oxo-2,3,4,5-tetrahydro-1H-pyrido[2,3-b][1,4]diazepin-8-yl)-N-methyl-N-((3-methylbenzofuran-2-yl)methyl)acrylamide] | < 1 µg/mL | > 8.00 |  |
| Cc1oc2ccccc2c1CN(C)C(=O)/C=C/c1cnc2c(c1)NCCC(=O)N2 [Compound 170, (E)-N-Methyl-N-((2-methylbenzofuran-3-yl)methyl)-3-(4-oxo-2,3,4,5-tetrahydro-1H-pyrido[2,3-b][1,4]diazepin-8-yl)acrylamide] | < 1 µg/mL | > 8.00 |  |
| Cc1oc2c(Oc3ccc4c(c3)OCC4)cccc2c1CN(C)C(=O)/C=C/c1cnc2c(c1)NC(C)(C)C(=O)N2 [Compound 164, (E)-N-((7-((2,3-dihydrobenzofuran-6-yl)oxy)-2-methylbenzofuran-3-yl)methyl)-3-(2,2-dimethyl-3-oxo-1,2,3,4-tetrahydropyrido[2,3-b]pyrazin-7-yl)-N-methylacrylamide] | < 1 µg/mL | > 8.00 |  |
| Cc1oc2c(N)cccc2c1CN(C)C(=O)/C=C/c1cnc2c(c1)NC[C@@](C)(O)C(=O)N2 [Compound 167, (R,E)-N-((7-amino-2-methylbenzofuran-3-yl)methyl)-3-(3-hydroxy-3-methyl-4-oxo-2,3,4,5-tetrahydro-1H-pyrido[2,3-b][1,4]diazepin-8-yl)-N-methylacrylamide] | < 1 µg/mL | > 8.00 |  |
| Cc1c(CN(C)C(=O)/C=C/c2cnc3c(c2)N[C@H](C)[C@@](C)(O)C(=O)N3)oc2ccccc12 (racemic) [Compound 207, (E)-3-(3-hydroxy-2,3-dimethyl-4-oxo-2,3,4,5-tetrahydro-1H-pyrido[2,3-b][1,4]diazepin-8-yl)-N-methyl-N-((3-methylbenzofuran-2-yl)methyl)acrylamide] |  | > 8.00 |  |
| O=C1CCNc2cc(/C=C/C(=O)N3C[C@H]4CC(c5ccc(Oc6ncccn6)cc5)=C[C@H]4C3)cnc2N1 [Compound 60, 8-((E)-3-Oxo-3-((3aS,6aR)-5-(4-(pyrimidin-2-yloxy)phenyl)-3,3a,4,6a-tetrahydrocyclopenta[c]pyrrol-2(1H)-yl)prop-1-en-1-yl)-1,2,3,5-tetrahydro-4H-pyrido[2,3-b][1,4]diazepin-4-one] | < 1 µg/mL | > 8.00 |  |
| Cc1oc2ccccc2c1CN(C)C(=O)/C=C/c1cnc2c(c1)NCC(C)(CO)C(=O)N2 (centres unmarked) [Compound 39, (E)-3-(3-(Hydroxymethyl)-3-methyl-4-oxo-2,3,4,5-tetrahydro-1H-pyrido[2,3-b][1,4]diazepin-8-yl)-N-methyl-N-((2-methylbenzofuran-3-yl)methyl)acrylamide] | < 1 µg/mL | > 8.00 |  |
| Cc1c(CN(C)C(=O)/C=C/c2cnc3c(c2)C=C[C@@](C)(O)C(=O)N3)oc2ccccc12 (single isomer, unassigned) [Compound 260] | < 1 µg/mL | > 8.00 |  |
| C[C@@]1(O)CNc2cc(/C=C/C(=O)N3C[C@H]4CC(c5ccc(Oc6ccccc6)cc5)=C[C@H]4C3)cnc2NC1=O [Compound 159, (R)-3-hydroxy-3-methyl-8-((E)-3-oxo-3-((3aS,6aR)-5-(4-phenoxyphenyl)-3,3a,4,6a-tetrahydrocyclopenta[c]pyrrol-2(1H)-yl)prop-1-en-1-yl)-1,2,3,5-tetrahydro-4H-pyrido[2,3-b][1,4]diazepin-4-one] | < 1 µg/mL | > 8.00 |  |
| Cc1c(CN(C)C(=O)/C=C/c2cnc3c(c2)NC[C@H](O)C(=O)N3)oc2ccccc12 [Compound 230, (S,E)-3-(3-Hydroxy-4-oxo-2,3,4,5-tetrahydro-1H-pyrido[2,3-b][1,4]diazepin-8-yl)-N-methyl-N-((3-methylbenzofuran-2-yl)methyl)acrylamide] | < 1 µg/mL | > 8.00 |  |
| Cc1oc2ccccc2c1CN(C)C(=O)/C=C/c1cnc2c(c1)NC[C@@](C)(CO)C(=O)N2 (single isomer, unassigned) [Compound 40] | < 1 µg/mL | > 8.00 |  |
| Cc1c(CN(C)C(=O)/C=C/c2cnc3c(c2)N[C@H](C)CC(=O)N3)oc2ccccc12 [Compound 214, (E)-N-methyl-N-[(3-methylbenzofuran-2-yl)methyl]-3-[(2R)-2-methyl-4-oxo-1,2,3,5-tetrahydropyrido[2,3-b][1,4]diazepin-8-yl]prop-2-enamide] | < 1 µg/mL | > 8.00 |  |
| Cc1c(CN(C)C(=O)/C=C/c2cnc3c(c2)N[C@@](C)(CO)C(=O)N3)oc2ccccc12 (single isomer, unassigned) [Compound 208] | < 1 µg/mL | > 8.00 |  |
| Cc1c(CN(C)C(=O)/C=C/c2cnc3c(c2)NC(C)(CO)C(=O)N3)oc2ccccc12 (centres unmarked) [Compound 84, (E)-3-(2-(Hydroxymethyl)-2-methyl-3-oxo-1,2,3,4-tetrahydropyrido[2,3-b]pyrazin-7-yl)-N-methyl-N-((3-methylbenzofuran-2-yl)methyl)acrylamide] | < 1 µg/mL | > 8.00 |  |
| Cc1oc2c(N)cccc2c1CN(C)C(=O)/C=C/c1cnc2c(c1)CCCC(=O)N2 [Compound 168, (E)-N-((7-amino-2-methylbenzofuran-3-yl)methyl)-N-methyl-3-(8-oxo-6,7,8,9-tetrahydro-5H-pyrido[2,3-b]azepin-3-yl)acrylamide] | < 1 µg/mL | > 8.00 |  |
| Cc1oc2ccccc2c1CN(C)C(=O)/C=C/c1cnc2c(c1)NC[C@](C)(CO)C(=O)N2 (single isomer, unassigned) [Compound 41] | < 1 µg/mL | > 8.00 |  |
| Cc1oc2c(Oc3ccc4c(c3)CCN4)cccc2c1CN(C)C(=O)/C=C/c1cnc2c(c1)CCCC(=O)N2 [Compound 180, (E)-N-((7-(indolin-5-yloxy)-2-methylbenzofuran-3-yl)methyl)-N-methyl-3-(8-oxo-6,7,8,9-tetrahydro-5H-pyrido[2,3-b]azepin-3-yl)acrylamide] | < 1 µg/mL | > 8.00 |  |
| Cc1oc2c(Oc3ccc4c(c3)OCC4)cccc2c1CN(C)C(=O)/C=C/c1cnc2c(c1)NC[C@@](C)(O)C(=O)N2 [Compound 182, (R,E)-N-((7-((2,3-dihydrobenzofuran-6-yl)oxy)-2-methylbenzofuran-3-yl)methyl)-3-(3-hydroxy-3-methyl-4-oxo-2,3,4,5-tetrahydro-1H-pyrido[2,3-b][1,4]diazepin-8-yl)-N-methylacrylamide] | < 1 µg/mL | > 8.00 |  |
| Cc1c(CN(C)C(=O)/C=C/c2cnc3c(c2)NC[C@@H](O)C(=O)N3)oc2ccccc12 [Compound 229, (R,E)-3-(3-Hydroxy-4-oxo-2,3,4,5-tetrahydro-1H-pyrido[2,3-b][1,4]diazepin-8-yl)-N-methyl-N-((3-methylbenzofuran-2-yl)methyl)acrylamide] | < 1 µg/mL | > 8.00 |  |
| Cc1c(CN(C)C(=O)/C=C/c2cnc3c(c2)NCCC(=O)N3)oc2cccc(N)c12 [Compound 7, (E)-N-((4-amino-3-methylbenzofuran-2-yl)methyl)-N-methyl-3-(4-oxo-2,3,4,5-tetrahydro-1H-pyrido[2,3-b][1,4]diazepin-8-yl)acrylamide] | < 1 µg/mL | > 8.00 |  |
| Cc1c(CN(C)C(=O)/C=C/c2cnc3c(c2)NC[C@@](C)(CO)C(=O)N3)oc2ccccc12 [Compound 32, (S,E)-3-(3-(hydroxymethyl)-3-methyl-4-oxo-2,3,4,5-tetrahydro-1H-pyrido[2,3-b][1,4]diazepin-8-yl)-N-methyl-N-((3-methylbenzofuran-2-yl)methyl)acrylamide] | < 1 µg/mL | > 8.00 |  |
| COc1cccc(Oc2cccc3c(CN(C)C(=O)/C=C/c4cnc5c(c4)CCCC(=O)N5)c(C)oc23)c1 [Compound 186, (E)-N-((7-(3-methoxyphenoxy)-2-methylbenzofuran-3-yl)methyl)-N-methyl-3-(8-oxo-6,7,8,9-tetrahydro-5H-pyrido[2,3-b]azepin-3-yl)acrylamide] | < 1 µg/mL | > 8.00 |  |
| Cc1oc2ccccc2c1CN(C)C(=O)/C=C/c1cnc2c(c1)N[C@H](C)[C@H](O)C(=O)N2 (single isomer, unassigned) [Compound 151] | < 1 µg/mL | > 8.00 |  |
| Cc1c(CN(C)C(=O)/C=C/c2cnc3c(c2)N[C@H](C)[C@@](C)(O)C(=O)N3)oc2ccccc12 [Compound 207, (E)-3-(3-hydroxy-2,3-dimethyl-4-oxo-2,3,4,5-tetrahydro-1H-pyrido[2,3-b][1,4]diazepin-8-yl)-N-methyl-N-((3-methylbenzofuran-2-yl)methyl)acrylamide] | < 1 µg/mL |  |  |

Source: patent US12545672B2, “Antibiotic compounds, methods of manufacturing the same, pharmaceutical compositions containing the same and uses thereof” (Debiopharm International S.A., priority 2018, dated 2026)
